Data taken from US20200093807A1, “NEW USE OF RIFAMYCIN-NITROIMIDAZOLE CONJUGATE MOLECULE” (TenNor Therapeutics Limited, priority 2017, published 2020).
Values after ≈ are worked out from the molar mass of the structure shown. Where two headings read alike, the source gives them in different places.

How the values were obtained:
[1] = tested on: Prevotella asaccharolytica (MET^R) MMX 3552; assay: MIC, anaerobic agar dilution (CLSI); type: cell-based; settings: 35° C., 42-48 hours
[2] = tested on: Clostridium perfringens (MET^R) MMX 3521; assay: microbe, parasite or virus in culture; type: cell-based
[3] = tested on: Prevotella bivia (MET^R) MMX 3454; assay: MIC, anaerobic agar dilution (CLSI); type: cell-based; settings: 35° C., 42-48 hours
[4] = tested on: Veionella parvula ATCC 17745; assay: MIC, anaerobic agar dilution (CLSI); type: cell-based; settings: 35° C., 42-48 hours
[5] = tested on: Atopobium vaginae BAA-55; assay: MIC, anaerobic agar dilution (CLSI); type: cell-based; settings: Fannyhessea vaginae, BAA55; Atopobium vaginae BAA-55; anaerobic, 35° C., 42-48 hours; read-out: MIC
[6] = tested on: Mobiluncus (curtisii subsp. curtisii) ATCC 35241; assay: MIC, anaerobic agar dilution (CLSI); type: cell-based; settings: ATCC35241, 35° C., 42-48 hours
[7] = tested on: Prevotella bivia ATCC 29303; assay: MIC, anaerobic agar dilution (CLSI); type: cell-based; settings: ATCC29303, 35° C., 42-48 hours
[8] = tested on: Prevotella bivia MMX 3450; assay: MIC, anaerobic agar dilution (CLSI); type: cell-based; settings: MMX3450, 35° C., 42-48 hours
[9] = tested on: Peptococcus (niger) ATCC 27731; assay: MIC, anaerobic agar dilution (CLSI); type: cell-based; settings: ATCC27731, 35° C., 42-48 hours
[10] = tested on: Bacteroides vulgatus MMX 8348; assay: MIC, anaerobic agar dilution (CLSI); type: cell-based; settings: Phocaeicola vulgatus, MMX8348, 35° C., 42-48 hours
[11] = tested on: Gardnerella; assay: MIC, agar dilution, Gardnerella; type: cell-based; settings: Gardnerella as major BV bacteria
[12] = tested on: Gardnerella vaginalis ATCC 14018; assay: MIC, anaerobic agar dilution (CLSI); type: cell-based; settings: ATCC14018, 35° C., 42-48 hours
[13] = tested on: Prevotella disiens MMX 3446; assay: MIC, anaerobic agar dilution (CLSI); type: cell-based; settings: MMX3446, 35° C., 42-48 hours
[14] = tested on: Gardnerella vaginalis ATCC 49145; assay: MIC, anaerobic agar dilution (CLSI); type: cell-based; settings: ATCC49145, 35° C., 42-48 hours
[15] = tested on: Escherichia coli; settings: several bacteria such as Escherichia coli; U.S. Pat. No. 7,678,791 B2; cited from earlier work
[16] = tested on: Bifidobacterium (breve) ATCC 15698; assay: MIC, anaerobic agar dilution (CLSI); type: cell-based; settings: ATCC15698, 35° C., 42-48 hours
[17] = tested on: Lactobacillus crispatus ATCC 33820; assay: MIC, anaerobic agar dilution (CLSI); type: cell-based; settings: ATCC33820; Lactobacillus crispatus ATCC 33820; anaerobic, 35° C., 42-48 hours; read-out: MIC
[18] = tested on: Peptoniphilus asaccharolyticus ATCC 29743; assay: MIC, anaerobic agar dilution (CLSI); type: cell-based; settings: ATCC29743, 35° C., 42-48 hours
[19] = tested on: Mobiluncus (mulieris) ATCC 35243; assay: MIC, anaerobic agar dilution (CLSI); type: cell-based; settings: ATCC35243, 35° C., 42-48 hours
[20] = tested on: Bacteroides fragilis (QC) ATCC 25285; assay: MIC, anaerobic agar dilution (CLSI); type: cell-based; settings: ATCC25285, 35° C., 42-48 hours
[21] = tested on: Lactobacillus jensenii ATCC 25258; assay: MIC, anaerobic agar dilution (CLSI); type: cell-based; settings: ATCC25258; Lactobacillus jensenii ATCC 25258; anaerobic, 35° C., 42-48 hours; read-out: MIC
[22] = tested on: Fusobacterium nucleatum ATCC 25586; assay: MIC, anaerobic agar dilution (CLSI); type: cell-based; settings: ATCC25586, 35° C., 42-48 hours
[23] = tested on: Peptostreptococcus anaerobius ATCC 27337; assay: MIC, anaerobic agar dilution (CLSI); type: cell-based; settings: ATCC27337, 35° C., 42-48 hours
[24] = tested on: Peptostreptococcus (magnus) ATCC 14956; assay: MIC, anaerobic agar dilution (CLSI); type: cell-based; settings: Finegoldia magna, ATCC14956, 35° C., 42-48 hours
[25] = tested on: Fusobacterium nucleatum ATCC 10953; assay: MIC, anaerobic agar dilution (CLSI); type: cell-based; settings: ATCC10953, 35° C., 42-48 hours
[26] = tested on: Bacteroides uniformis MMX 1277; assay: MIC, anaerobic agar dilution (CLSI); type: cell-based; settings: MMX1277; Bacteroides uniformis MMX 1277; anaerobic, 35° C., 42-48 hours; read-out: MIC
[27] = tested on: Clostridium sporogenes ATCC 19404; assay: MIC, anaerobic agar dilution (CLSI); type: cell-based; settings: ATCC19404, 35° C., 42-48 hours
[28] = tested on: Bifidobacterium longum ATCC 15707; assay: MIC, anaerobic agar dilution (CLSI); type: cell-based; settings: ATCC15707, 35° C., 42-48 hours
[29] = tested on: Actinomyces naeslundii ATCC 12104; assay: MIC, anaerobic agar dilution (CLSI); type: cell-based; settings: ATCC12104, 35° C., 42-48 hours
[30] = tested on: Bacteroides ovatus (MET^R) MMX 3504; assay: MIC, anaerobic agar dilution (CLSI); type: cell-based; settings: 35° C., 42-48 hours
[31] = tested on: Prevotella disiens MMX 3457; assay: MIC, anaerobic agar dilution (CLSI); type: cell-based; settings: MMX3457, 35° C., 42-48 hours
[32] = tested on: Treponema denticola ATCC 35405; assay: MIC, anaerobic agar dilution (CLSI); type: cell-based; settings: ATCC35405, 35° C., 42-48 hours
[33] = tested on: Prevotella intermedia ATCC 25611; assay: MIC, anaerobic agar dilution (CLSI); type: cell-based; settings: ATCC25611, 35° C., 42-48 hours
[34] = tested on: Lactobacillus gasseri ATCC 33323; assay: MIC, anaerobic agar dilution (CLSI); type: cell-based; settings: ATCC33323; Lactobacillus gasseri ATCC 33323; anaerobic, 35° C., 42-48 hours; read-out: MIC
[35] = tested on: Bacteroides vulgatus (MET^R) MMX 3490; assay: MIC, anaerobic agar dilution (CLSI); type: cell-based; settings: Phocaeicola vulgatus; Bacteroides vulgatus (MET^R) MMX 3490; anaerobic, 35° C., 42-48 hours; read-out: MIC
[36] = tested on: Anaerococcus (Anaerococcus(prevotii)) ATCC 9321; assay: MIC, anaerobic agar dilution (CLSI); type: cell-based; settings: 35° C., 42-48 hours
[37] = tested on: Bacteroides gracilis ATCC 33236; assay: MIC, anaerobic agar dilution (CLSI); type: cell-based; settings: Campylobacter gracilis, ATCC33236; Bacteroides gracilis ATCC 33236; anaerobic, 35° C., 42-48 hours; read-out: MIC
[38] = tested on: Bacteroides thetaiotaomicron (MET^R) MMX 3409; assay: microbe, parasite or virus in culture; type: cell-based
[39] = tested on: Bacteroides fragilis (MET^R) MMX 3387; assay: MIC, anaerobic agar dilution (CLSI); type: cell-based; settings: Bacteroides fragilis (MET^R) MMX 3387; anaerobic, 35° C., 42-48 hours; read-out: MIC
[40] = tested on: Eubacterium (rectale) ATCC 33656; assay: MIC, anaerobic agar dilution (CLSI); type: cell-based; settings: Agathobacter rectalis, ATCC33656, 35° C., 42-48 hours

| SMILES | MIC [1] | MIC [2] | MIC [3] | MIC [4] | MIC [5] | MIC [6] | MIC [7] | MIC [8] | MIC [9] | MIC [10] | MIC [11] | MIC [12] | MIC [13] | MIC [14] | MIC [16] | MIC [17] | MIC [18] | MIC [19] | MIC [20] | MIC [21] | further results |
| --- | --- | --- | --- | --- | --- | --- | --- | --- | --- | --- | --- | --- | --- | --- | --- | --- | --- | --- | --- | --- | --- |
| CO[C@H]1/C=C/O[C@@]2(C)Oc3c(C)c(O)c4c(c3C2=O)C2=NC3(CCN(CCn5c([N+](=O)[O-])cnc5C)CC3)NC2=C(NC(=O)/C(C)=C\C=C\[C@H](C)[C@H](O)[C@@H](C)[C@@H](O)[C@@H](C)[C@H](OC(C)=O)[C@@H]1C)C4=O [Compound I, 4-deoxy-3,4-[2-spiro-[2-(2-methyl-5-nitro-imidazole-1-yl)ethyl]-piperidine-4-yl]-(1-hydrogen)-imidazo-(2,5-dihydro) rifamycin S] | 0.008 µg/mL (≈ 0.00847 µM) | 2 µg/mL (≈ 2.12 µM) | 0.015 µg/mL (≈ 0.0159 µM) | 2 µg/mL (≈ 2.12 µM) | 0.03 µg/mL (≈ 0.0318 µM) | 0.002 µg/mL (≈ 0.00212 µM) | 0.015 µg/mL (≈ 0.0159 µM) | 0.0005 µg/mL (≈ 0.00053 µM) | 0.0005 µg/mL (≈ 0.00053 µM) | 0.03 µg/mL (≈ 0.0318 µM) | 0.004 µg/mL (≈ 0.00424 µM) | 0.004 µg/mL (≈ 0.00424 µM) | 0.015 µg/mL (≈ 0.0159 µM) | 0.004 µg/mL (≈ 0.00424 µM) | 0.015 µg/mL (≈ 0.0159 µM) | 4 µg/mL (≈ 4.24 µM) | 0.008 µg/mL (≈ 0.00847 µM) | 0.001 µg/mL (≈ 0.00106 µM) | 0.03 µg/mL (≈ 0.0318 µM) | 0.008 µg/mL (≈ 0.00847 µM) | antimicrobial activity [15]: has antimicrobial activity; MIC [22]: 0.001 µg/mL (≈ 0.00106 µM); MIC [23]: 0.002 µg/mL (≈ 0.00212 µM); MIC [24]: 0.0005 µg/mL (≈ 0.00053 µM); MIC [25]: 0.12 µg/mL (≈ 0.127 µM); MIC [26]: 0.03 µg/mL (≈ 0.0318 µM); MIC [27]: 0.015 µg/mL (≈ 0.0159 µM); MIC [28]: 0.015 µg/mL (≈ 0.0159 µM); MIC [29]: 0.001 µg/mL (≈ 0.00106 µM); MIC [30]: 0.12 µg/mL (≈ 0.127 µM); MIC [31]: 0.008 µg/mL (≈ 0.00847 µM); MIC [32]: 0.002 µg/mL (≈ 0.00212 µM); MIC [33]: 0.0005 µg/mL (≈ 0.00053 µM); MIC [34]: 0.015 µg/mL (≈ 0.0159 µM); MIC [35]: 0.03 µg/mL (≈ 0.0318 µM); MIC [36]: 0.0005 µg/mL (≈ 0.00053 µM); MIC [37]: 0.5 µg/mL (≈ 0.53 µM); MIC ([38]; Bacteroides thetaiotaomicron (MET^R) MMX 3409, anaerobic, 35° C., 42-48 hours, read-out: MIC): 0.03 µg/mL (≈ 0.0318 µM); MIC [39]: 0.015 µg/mL (≈ 0.0159 µM); MIC [40]: 0.0005 µg/mL (≈ 0.00053 µM) |
| CO[C@H]1/C=C/O[C@@]2(C)Oc3c(C)c(O)c4c(O)c(c(/C=N/N5CCN(C)CC5)c(O)c4c3C2=O)NC(=O)/C(C)=C\C=C\[C@H](C)[C@H](O)[C@@H](C)[C@@H](O)[C@@H](C)[C@H](OC(C)=O)[C@@H]1C [Rifampicin] | 0.004 µg/mL (≈ 0.00486 µM) | 1 µg/mL (≈ 1.22 µM) | 0.004 µg/mL (≈ 0.00486 µM) | 4 µg/mL (≈ 4.86 µM) | 0.25 µg/mL (≈ 0.304 µM) | 0.004 µg/mL (≈ 0.00486 µM) | 0.5 µg/mL (≈ 0.608 µM) | 0.06 µg/mL (≈ 0.0729 µM) | 0.004 µg/mL (≈ 0.00486 µM) | 0.25 µg/mL (≈ 0.304 µM) | 0.5 µg/mL (≈ 0.608 µM) | 0.5 µg/mL (≈ 0.608 µM) | 0.12 µg/mL (≈ 0.146 µM) | 0.5 µg/mL (≈ 0.608 µM) | 0.25 µg/mL (≈ 0.304 µM) | 2 µg/mL (≈ 2.43 µM) | 0.004 µg/mL (≈ 0.00486 µM) | 0.004 µg/mL (≈ 0.00486 µM) | 0.25 µg/mL (≈ 0.304 µM) | 0.5 µg/mL (≈ 0.608 µM) | MIC [22]: 0.5 µg/mL (≈ 0.608 µM); MIC [23]: 0.004 µg/mL (≈ 0.00486 µM); MIC [24]: 1 µg/mL (≈ 1.22 µM); MIC [25]: 1 µg/mL (≈ 1.22 µM); MIC [26]: 0.5 µg/mL (≈ 0.608 µM); MIC [27]: 1 µg/mL (≈ 1.22 µM); MIC [28]: 0.5 µg/mL (≈ 0.608 µM); MIC [29]: 0.03 µg/mL (≈ 0.0365 µM); MIC [30]: 1 µg/mL (≈ 1.22 µM); MIC [31]: 0.5 µg/mL (≈ 0.608 µM); MIC [32]: 0.004 µg/mL (≈ 0.00486 µM); MIC [33]: 0.12 µg/mL (≈ 0.146 µM); MIC [34]: 0.25 µg/mL (≈ 0.304 µM); MIC [35]: 0.25 µg/mL (≈ 0.304 µM); MIC [36]: 0.03 µg/mL (≈ 0.0365 µM); MIC [37]: 16 µg/mL (≈ 19.4 µM); MIC ([38]; Bacteroides thetaiotaomicron): 0.5 µg/mL (≈ 0.608 µM); MIC [39]: 0.25 µg/mL (≈ 0.304 µM); MIC [40]: 0.015 µg/mL (≈ 0.0182 µM) |
